Experimental data taken from patent publication US4292321A, “1,3,8-Triazaspirodecane-4-ones, pharmaceutical compositions thereof and method of use thereof” (Warner-Lambert Company, priority 1980, dated 1981).
Counter-ions that a name gives are not always drawn. Like-named read-outs stand apart in the source and are kept apart here.

Biological target: T1, dopamine receptor (Bos taurus, UniProt P20288)
T1 construct: from tissue
Test: 3H-haloperidol receptor binding assay (HRBA)
Details: for inhibition at 0.01 µM / inhibition at 0.1 µM / inhibition at 0.001 µM: read-out: inhibition of 3H-haloperidol binding
Description: The compounds of this invention are useful because of their valuable pharmacological properties. […] As with other known neuroleptics, the compounds of this invention readily displace ^3 H-haloperidol from dopamine receptor binding sights in the ^3 H-haloperidol receptor binding assay (HRBA). […] The HRBA screen is described by I. Creese, D. R. Burt and S. H. Snyder, Science 142: 480 (1976) and by B. Seeman, T. Lee, M. Chani-Wong and K. Wong, Nature 261: 717 […].

T1 sequence (P20288 whole entry): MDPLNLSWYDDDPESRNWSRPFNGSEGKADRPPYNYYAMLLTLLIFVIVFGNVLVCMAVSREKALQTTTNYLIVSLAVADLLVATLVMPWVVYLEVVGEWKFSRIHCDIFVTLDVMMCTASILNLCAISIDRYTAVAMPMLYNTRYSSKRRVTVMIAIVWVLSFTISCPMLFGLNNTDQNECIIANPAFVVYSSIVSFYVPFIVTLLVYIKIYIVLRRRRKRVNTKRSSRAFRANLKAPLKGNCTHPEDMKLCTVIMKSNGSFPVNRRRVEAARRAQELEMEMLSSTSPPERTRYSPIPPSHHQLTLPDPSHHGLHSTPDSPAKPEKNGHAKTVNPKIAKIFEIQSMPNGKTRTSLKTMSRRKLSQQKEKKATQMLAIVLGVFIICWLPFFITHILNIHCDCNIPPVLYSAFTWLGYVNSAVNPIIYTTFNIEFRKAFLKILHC

inhibition at 0.01 µM (10 n moles concentration)	inhibition at 0.1 µM (100 n moles concentration)	Compound	inhibition at 0.01 µM	inhibition at 0.1 µM	also measured
–	–	O=C1NCN(c2ccccc2)C12CCN(CCCN(c1ccc(F)cc1)c1ccc(F)cc1)CC2 [Example 1, 8-[3-(Bis-[4-fluorophenyl]amino)propyl]-1-phenyl-1,3,8-triazaspiro[4,5]decan-4-one hydrobromide]	~73%	~77%	–
–	–	O=C1NCN(c2ccc(F)cc2)C12CCN(CCCN(c1ccccc1)c1ccccc1)CC2 [Example 2, 8-[3-(Diphenylamino)propyl]-1-(4-fluorophenyl)-1,3,8-triazaspiro[4,5]decan-4-one]	~76%	~85%	–
–	–	Cc1ccc(N2CNC(=O)C23CCN(CCCN(c2ccccc2)c2ccccc2)CC3)cc1 [Example 3, 8-[3-(Diphenylamino)propyl]-1-(4-methylphenyl)-1,3,8-triazaspiro[4,5]decan-4-one]	~71%	~87%	–
–	–	COc1ccc(N2CNC(=O)C23CCN(CCCN(c2ccccc2)c2ccccc2)CC3)cc1 [Example 4, 8-[3-(Diphenylamino)propyl]-1-(4-methoxyphenyl)-1,3,8-triazaspiro[4,5]decan-4-one]	~67%	~98%	–
–	–	O=C1NCN(c2ccc(F)cc2)C12CCN(CCCN(c1ccc(F)cc1)c1ccc(F)cc1)CC2 [Example 5, 8-[3-[Bis-(4-fluorophenyl)amino]propyl]-1-(4-fluorophenyl)-1,3,8-triazaspiro[4,5]decan-4-one]	~84%	~100%	–
~78%	–	O=c1[nH]c2ccccc2n1C1CCN(CCCN(c2ccc(F)cc2)c2ccc(F)cc2)CC1 [Example 6, 1-(1[3-[Bis(4-fluorophenyl)amino]propyl]-4-piperidyl)-1,3-dihydro-2H-benzimidazol-2-one]	–	–	inhibition at 0.001 µM (1 n mole concentration): ~50%
–	–	O=c1[nH]c2ccccc2n1C1=CCN(CCCN(c2ccc(F)cc2)c2ccc(F)cc2)CC1 [Example 7, 1-[1-[3-[Bis(4-fluorophenyl)amino]propyl]-1,2,3,6-tetrahydro-4-pyridinyl]-1,3-dihydro-2H-benzimidazol-2-one hydrochloride]	~22%	~67%	–
~28%	~89%	Fc1ccc(N(CCCN2CCC(n3c(=S)[nH]c4ccccc43)CC2)c2ccc(F)cc2)cc1 [Example 8, 1-[1-(3-[Bis(4-fluorophenyl)amino]propyl)-4-piperidinyl]-1,3-dihydro-2H-benzimidazole-2-thione]	–	–	–
–	–	O=c1[nH]c2ccccc2n1C1CCN(CCCN(c2ccccc2)c2ccccc2)CC1 [Example 9, 1-[1-(3-(Diphenylamino]propyl)-4-piperidinyl]-1,3-dihydro-2H-benzimidazol-2-one hydrochloride]	~68%	~91%	–
–	–	O=c1[nH]c2ccccc2n1C1CCN(CCCN(c2ccccc2)c2ccc([N+](=O)[O-])cc2)CC1 [Example 10, 1,3-Dihydro-1-[1-(3-[(4-nitrophenyl)phenylamino]propyl)-4-piperidinyl]-2H-benzimidazol-2-one hydrochloride]	~17%	~75%	–
~61%	~91%	Cc1cccc(N(CCCN2CCC(n3c(=O)[nH]c4ccccc43)CC2)c2ccccc2)c1 [Example 11, 1,3-Dihydro-1-[1-(3-[(3-methylphenyl)phenylamino]propyl-4-piperidinyl]-2H-benzimidazol-2-one hydrochloride]	–	–	–
~53%	~93%	Cc1cc2[nH]c(=O)n(C3CCN(CCCN(c4ccccc4)c4ccccc4)CC3)c2cc1C [Example 13, 1-[1-(3-[Diphenylamino]propyl)-4-piperidiyl]-1,3-dihydro-5,6-dimethyl-2H-benzimidazol-2-one]	–	–	–
~92%	~100%	O=c1[nH]c2ccccc2n1C1CCN(CCCN(c2ccc(F)cc2)c2ccccc2F)CC1 [Example 14, 1,3-Dihydro-1-[1-[3-[(4-fluorophenyl)-(2-fluorophenyl)amino]propyl]-4-piperidinyl]-2H-benzimidazol-2-one]	–	–	inhibition at 0.001 µM (1 n mole concentration): ~56%
~74%	~100%	O=c1[nH]c2ccccc2n1C1CCN(CCCN(c2ccccc2)c2ccc(F)cc2)CC1 [Example 15, 1,3-Dihydro-1-[1-[3-[(4-fluorophenyl)phenylamino]propyl]-4-piperidinyl]-2H-benzimidazol-2-one]	–	–	–
~6%	~60%	Cc1cc2c(cc1C)n(C1CCN(CCCN(c3ccccc3)c3ccccc3)CC1)c(=O)n2C [Example 16, 1-[1-([3-Diphenylamino]propyl)-4-piperidinyl]-1,3-dihydro-3,5,6-trimethyl-2H-benzimidazol-2-one butenedioate]	–	–	–
~85%	~100%	Cc1cc2[nH]c(=O)n(C3CCN(CCCN(c4ccc(F)cc4)c4ccc(F)cc4)CC3)c2cc1C [Example 17, 1-[1-[3-[Bis-(4-fluorophenyl)amino]propyl]-4-piperidyl]-1,3-dihydro-5,6-dimethyl-2H-benzimidazol-2-one]	–	–	inhibition at 0.001 µM (1 n mole concentration): ~29%

inhibition at 0.01 µM (10 n moles concentration)	inhibition at 0.1 µM (100 n moles concentration)	Compound	inhibition at 0.01 µM	inhibition at 0.1 µM	also measured
–	–	OC1(c2cccc(F)c2)CCN(CCCN(c2ccccc2)c2ccccc2)CC1 [Example 18, 1-[3-(Diphenylamino)propyl]-4-(3-fluorophenyl)-4-piperidinol ethanedioate]	~23%	~83%	–
–	–	OC1(c2ccc(F)cc2)CCN(CCCN(c2ccc(F)cc2)c2ccc(F)cc2)CC1 [Example 19, 4-(4-Fluorophenyl)-1-(3-[bis(4-fluorophenyl)amino]propyl)-4-piperidinol hydrochloride]	~82%	–	inhibition at 0.001 µM: ~25%
–	–	OC1(c2ccc(Cl)cc2)CCN(CCCN(c2ccc(F)cc2)c2ccc(F)cc2)CC1 [Example 20, 1-(3-[Bis(4-fluorophenyl)amino]propyl)-4-(4-chlorophenyl)-4-piperidinol ethanedioate]	~74%	~100%	–
~8%	~48%	C1=C(Oc2ccccc2)CCN(CCCN(c2ccccc2)c2ccccc2)C1 [Example 21, 3,6-Dihydro-4-phenoxy-N,N-diphenyl-1(2H)-pyridinepropanamine ethanedioate.]	–	–	–
–	–	c1ccc(OC2CCN(CCCN(c3ccccc3)c3ccccc3)CC2)cc1 [Example 22, 4-Phenoxy-N,N-diphenyl-1-piperidinepropanamine ethanedioate]	~7%	~59%	–
~6%	~24%	FC(F)(F)c1cccc(OC2=CCN(CCCN(c3ccccc3)c3ccccc3)CC2)c1 [Example 23, 3,6-Dihydro-N,N-diphenyl-4-[(3-trifluoromethyl)phenoxy]-1(2H)-pyridinepropanamine ethanedioate]	–	–	–
–	–	FC(F)(F)c1cccc(OC2CCN(CCCN(c3ccccc3)c3ccccc3)CC2)c1.O=C(O)C(=O)O [Example 24, N,N-diphenyl-4-[3-(trifluoromethyl)phenoxy]-1-piperidinepropanamine ethanedioate]	–	~8%	inhibition of 3H-haloperidol binding (10 n moles concentration): no inhibition
~43%	–	Fc1ccc(OC2=CCN(CCCN(c3ccc(F)cc3)c3ccc(F)cc3)CC2)cc1 [Example 25, 4-(4-Fluorophenoxy)-N,N-bis(4-fluorophenyl)-1,2,3,6-tetrahydro-1-pyridinepropanamine-d-2,3-dihydroxybutanedioate]	–	–	inhibition of 3H-haloperidol binding (1 n mole concentration): no inhibition
–	–	Clc1ccc(OC2=CCN(CCCN(c3ccccc3)c3ccccc3)CC2)cc1Cl.O=C(O)C(=O)O [Example 26, 4-(3,4-Dichlorophenoxy)-3,6-dihydro-N,N-diphenyl-1(2H)-pyridinepropanamine ethanedioate]	–	~26%	inhibition of 3H-haloperidol binding (10 n moles concentration): no inhibition
–	~12%	Fc1ccc(N2CCN(CCCN(c3ccccc3)c3ccccc3)CC2)cc1 [Example 31, 4-(4-Fluorophenyl)-N,N-diphenyl-1-piperazinepropanamine]	–	–	inhibition of 3H-haloperidol binding (10 n moles concentration): no inhibition
–	–	c1ccc(CN2CCN(CCCN(c3ccccc3)c3ccccc3)CC2)cc1 [Example 32, N,N-diphenyl-4-(phenylmethyl)-1-piperazinepropanamine ethanedioate]	~16%	~33%	–
–	–	CC(C)Sc1ccccc1N1CCN(CCCN(c2ccccc2)c2ccccc2)CC1.Cl [Example 33, 4-[2-[(1-Methylethyl)thio]phenyl]-N,N-diphenyl-1-piperazinepropanamine hydrochloride]	–	~28%	inhibition of 3H-haloperidol binding (10 n moles concentration): no inhibition
–	–	CCCSc1ccccc1N1CCN(CCCN(c2ccccc2)c2ccccc2)CC1 [Example 34, N,N-diphenyl-4-[2-(propylthio)phenyl]-1-piperazinepropanamine ethanedioate]	~6%	~64%	–
–	–	COc1ccccc1N1CCN(CCCN(c2ccc(F)cc2)c2ccc(F)cc2)CC1 [Example 35, N,N-bis(4-fluorophenyl)-4-(2-methoxyphenyl)-1-piperazinepropanamine dihydrochloride]	~28%	~79%	–
–	–	OCCN1CCN(CCCN(c2ccc(F)cc2)c2ccc(F)cc2)CC1 [Example 36, 4-[3-[Bis(4-fluorophenyl)amino]propyl]-1-piperazineethanol dihydrochloride]	~21%	~62%	–
–	–	Cl.Cl.Fc1ccc(N(CCCN2CCN(c3ccccc3)CC2)c2ccc(F)cc2)cc1 [Example 37, N,N-bis(4-fluorophenyl)-4-phenyl-1-piperazinepropanamine dihydrochloride]	–	~37%	inhibition of 3H-haloperidol binding (10 n moles concentration): no inhibition
